The text below walks through data of ChEMBL document CHEMBL3045765, “Quantitative structure-fungitoxicity relationships of some monohydric alcohols” (J Agric Food Chem, 2003).

Assay [1] concerns Colletotrichum gloeosporioides. Briefly: Fungitoxicity against Colletotrichum gloeosporioides assessed as mycelial growth inhibition by poisoned food technique. It is filed as functional, organism-based. Particulars: for minimal effective concentration: read-out: MEC.
Assay [2] deals with Colletotrichum gloeosporioides. Briefly: Fungitoxicity against Colletotrichum gloeosporioides assessed as mycelial growth inhibition at 1200 mg/L by poisoned food technique. To be noted: read-out: GI. The format is functional.

Turning to `C=C[C@H](O)CCCCC`, the figures for the EC50 in assay [1] (read-out: EC50) and in assay [1] (read-out: pEC50 (converted)) were 1290 µg/mL and 10 mM, respectively.

Turning to `CCCCCCCO` [1-HEPTANOL], the EC50 was 546 µg/mL in assay [1] (read-out: EC50) and 4.68 mM in assay [1] (read-out: pEC50 (converted)). Moreover, in assay [1], the minimal effective concentration worked out at 182 µg/mL.

Turning to `CCCCCCO` [1-HEXANOL], the EC50 in assay [1] (read-out: EC50) is 1270 µg/mL; in assay [1] (read-out: pEC50 (converted)) it was 12 mM. Further, the minimal effective concentration in assay [1] is 772 µg/mL.

In the case of `CCCCCO` [1-PENTANOL], the EC50 is 2130 µg/mL in assay [1] (read-out: EC50) and 24 mM in assay [1] (read-out: pEC50 (converted)). Also, the minimal effective concentration in assay [1] is 712 µg/mL.

With `CC(C)CCO` [3-METHYLBUTANOL], the EC50 in assay [1] (read-out: EC50) was 3710 µg/mL; in assay [1] (read-out: pEC50 (converted)), 41.7 mM.

Regarding `CC(C)[C@@H]1CC[C@@H](C)C[C@@H]1O` [(+) NEOMENTHOL], the EC50 was 488 µg/mL in assay [1] (read-out: EC50) and 3.09 mM in assay [1] (read-out: pEC50 (converted)).

As for `CCO` [ALCOHOL], the EC50 in assay [1] (read-out: EC50) is 17700 µg/mL. The minimal effective concentration in assay [1] worked out at 5490 µg/mL.

On to `OCc1ccccc1` [BENZYL ALCOHOL], for which the EC50 in assay [1] (read-out: EC50) is 1180 µg/mL; in assay [1] (read-out: pEC50 (converted)), 11 mM.

For the compound `CCCCO` [BUTYL ALCOHOL], the values for the EC50 in assay [1] (read-out: EC50) and in assay [1] (read-out: pEC50 (converted)) were 3690 µg/mL and 50.1 mM, respectively. The minimal effective concentration in assay [1] was found to be 910 µg/mL.

As to `CCCCCCCCCCCCCCCCCCO` [CETOSTEARYL ALCOHOL], the EC50 was > 225 µg/mL in assay [1] (read-out: EC50) and > 1.26 mM in assay [1] (read-out: pEC50 (converted)). The minimal effective concentration in assay [1] was > 225 µg/mL.

Take `CCCCCCCCCCCCCCCCO` [CETYL ALCOHOL]: the EC50 in assay [1] (read-out: EC50) was > 1200 µg/mL; in assay [1] (read-out: pEC50 (converted)) it was > 5.25 mM. Moreover, the inhibition of growth at 1200 µg/mL in assay [2] came to 5%.

In the case of `CC(C)=CCCC(C)CCO` (stereo unspecified) [CITRONELLOL], the EC50 is 84 µg/mL in assay [1] (read-out: EC50) and 0.537 mM in assay [1] (read-out: pEC50 (converted)).

With `CCCCCCCCCCO` [DECANOL], the EC50 is 112 µg/mL in assay [1] (read-out: EC50) and 0.708 mM in assay [1] (read-out: pEC50 (converted)). For the same compound, in assay [1], the minimal effective concentration came to 52 µg/mL.

On to `CC(C)=CCC/C(C)=C/CO` [GERANIOL], for which the EC50 is 100 µg/mL in assay [1] (read-out: EC50) and 0.646 mM in assay [1] (read-out: pEC50 (converted)).

As to `CC(C)CO` [ISOBUTANOL], the EC50 in assay [1] (read-out: EC50) amounted to 8200 µg/mL.

With `CC(C)O` [ISOPROPYL ALCOHOL], the EC50 in assay [1] (read-out: EC50) turned out to be 18200 µg/mL.

As for `C=CC(C)(O)CCC=C(C)C` (stereo unspecified) [LINALOOL], the EC50 is 1090 µg/mL in assay [1] (read-out: EC50) and 7.08 mM in assay [1] (read-out: pEC50 (converted)).

In the case of `CC1CCC(C(C)C)C(O)C1` (stereo unspecified) [MENTHOL], the EC50 in assay [1] (read-out: EC50) was 452 µg/mL; in assay [1] (read-out: pEC50 (converted)), 2.88 mM.

For `CO` [METHYL ALCOHOL], the EC50 in assay [1] (read-out: EC50) is 24700 µg/mL. Moreover, the minimal effective concentration in assay [1] was found to be 8000 µg/mL.

Turning to `CCCCCCCCO` [OCTANOL], the EC50 in assay [1] (read-out: EC50) is 298 µg/mL; in assay [1] (read-out: pEC50 (converted)), 2.29 mM. The minimal effective concentration in assay [1] was 87 µg/mL.

As for `OCCc1ccccc1` [PHENYLETHYL ALCOHOL], the EC50 is 1000 µg/mL in assay [1] (read-out: EC50) and 8.13 mM in assay [1] (read-out: pEC50 (converted)).

Take `CCCO` [PROPANOL]: the EC50 in assay [1] (read-out: EC50) stood at 8980 µg/mL. In assay [1], the minimal effective concentration amounted to 4430 µg/mL.

Take `CC(C)(C)O` [TERT-BUTANOL]: in assay [1] (read-out: EC50), the EC50 is 17100 µg/mL.
